Measurements: patent US20240101540A1, “TARGETED PROTEIN DEGRADATION OF PARP14 FOR USE IN THERAPY” (Ribon Therapeutics, Inc., priority 2022, published 2024)

Target: T1, HiBiT tagged PARP14 (Homo sapiens, UniProt Q460N5)
T1 construct: engineered to contain a HiBiT tag on both alleles of the PARP14 gene; endogenous in cells; host or cells: Jurkat cells stably transfected with LgBiT (Promega), PARP14 locus edited by CRISPR/Cas9
Experiment: HiBiT assay for the degradation of PARP14 (HiBiT tagged PARP14 in LgBiT expressing Jurkat cells, 2 or 24 hours)
Type: cell-based
Conditions: Assay B (Example B): HiBiT tagged PARP14 degradation in LgBiT expressing Jurkat cells, read-out: DC50
Outline: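 Jurkat cells stably expressing LgBiT with CRISPR knock-in of C-terminal HiBiT on both PARP14 alleles, 5,000 cells/well, treated with compound dose-response at 37 °C for 2 or 24 h. Live Cell Substrate luminescence normalised to 0.1% DMSO wells; DC50 from 4-parameter fit with floating top, bottom, Hill.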

T1 sequence (Q460N5 whole entry): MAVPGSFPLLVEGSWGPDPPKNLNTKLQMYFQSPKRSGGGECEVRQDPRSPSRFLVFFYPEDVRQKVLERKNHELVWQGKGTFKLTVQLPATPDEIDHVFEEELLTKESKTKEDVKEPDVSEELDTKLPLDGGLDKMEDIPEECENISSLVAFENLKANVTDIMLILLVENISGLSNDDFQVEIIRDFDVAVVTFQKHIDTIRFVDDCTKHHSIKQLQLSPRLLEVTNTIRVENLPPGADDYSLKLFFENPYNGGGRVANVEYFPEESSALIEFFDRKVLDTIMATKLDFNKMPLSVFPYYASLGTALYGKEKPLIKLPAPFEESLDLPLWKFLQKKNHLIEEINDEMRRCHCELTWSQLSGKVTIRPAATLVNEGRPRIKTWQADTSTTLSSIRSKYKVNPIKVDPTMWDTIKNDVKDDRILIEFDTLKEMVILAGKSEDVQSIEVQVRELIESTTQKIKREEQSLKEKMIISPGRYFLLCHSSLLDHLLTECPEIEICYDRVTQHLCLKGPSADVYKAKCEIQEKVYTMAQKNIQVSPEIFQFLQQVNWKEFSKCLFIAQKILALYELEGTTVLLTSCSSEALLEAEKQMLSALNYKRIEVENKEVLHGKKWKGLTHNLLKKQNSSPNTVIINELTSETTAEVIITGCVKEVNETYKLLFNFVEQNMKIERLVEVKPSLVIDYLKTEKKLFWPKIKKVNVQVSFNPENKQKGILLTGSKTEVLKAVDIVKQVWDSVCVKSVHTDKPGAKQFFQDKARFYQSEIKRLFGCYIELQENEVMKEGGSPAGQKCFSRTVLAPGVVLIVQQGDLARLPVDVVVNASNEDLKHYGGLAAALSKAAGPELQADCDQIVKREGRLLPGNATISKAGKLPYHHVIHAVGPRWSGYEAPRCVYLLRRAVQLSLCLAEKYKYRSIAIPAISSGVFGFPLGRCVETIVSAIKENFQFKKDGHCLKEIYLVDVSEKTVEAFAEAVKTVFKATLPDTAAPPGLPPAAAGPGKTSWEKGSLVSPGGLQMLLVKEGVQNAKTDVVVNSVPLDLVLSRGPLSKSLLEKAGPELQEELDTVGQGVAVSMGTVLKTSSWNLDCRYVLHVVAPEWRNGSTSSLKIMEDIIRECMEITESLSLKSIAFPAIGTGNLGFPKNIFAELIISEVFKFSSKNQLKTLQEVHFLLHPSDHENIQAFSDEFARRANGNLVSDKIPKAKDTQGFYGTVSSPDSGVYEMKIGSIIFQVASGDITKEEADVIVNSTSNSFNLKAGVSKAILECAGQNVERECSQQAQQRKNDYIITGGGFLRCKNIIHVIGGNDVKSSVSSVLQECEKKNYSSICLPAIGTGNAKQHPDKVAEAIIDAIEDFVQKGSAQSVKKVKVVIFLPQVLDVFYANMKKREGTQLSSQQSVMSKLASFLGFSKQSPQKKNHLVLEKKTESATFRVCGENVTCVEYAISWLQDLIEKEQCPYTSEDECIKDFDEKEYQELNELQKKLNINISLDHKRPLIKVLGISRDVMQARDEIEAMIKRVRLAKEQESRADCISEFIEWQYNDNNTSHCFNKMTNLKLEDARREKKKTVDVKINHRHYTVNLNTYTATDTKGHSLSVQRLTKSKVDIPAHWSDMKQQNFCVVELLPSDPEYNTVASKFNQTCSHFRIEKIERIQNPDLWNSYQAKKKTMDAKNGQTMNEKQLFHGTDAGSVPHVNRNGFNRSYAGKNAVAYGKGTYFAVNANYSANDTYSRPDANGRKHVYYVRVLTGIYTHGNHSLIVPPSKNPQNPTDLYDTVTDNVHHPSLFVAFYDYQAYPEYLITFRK

| DC50 | Compound |
| --- | --- |
| < 30 nM | O=C1CCC(Nc2ccc(N3CCN(CCN4CCC(COc5cc(F)c6c(=O)[nH]c(COC7CCOCC7)nc6c5)CC4)CC3)cc2F)C(=O)N1 (stereo not drawn) [Example 192, 3-((2-fluoro-4-(4-(2-(4-(((5-fluoro-4-oxo-2-(((tetrahydro-2H-pyran-4-yl)oxy)methyl)-3,4-dihydroquinazolin-7-yl)oxy)methyl)piperidin-1-yl)ethyl)piperazin-1-yl)phenyl)amino)piperidine-2,6-dione diformate] |
| < 30 nM | O=C1CCC(Nc2ccc(N3CCN(CCN4CC(COc5cc(F)c6c(=O)[nH]c(CSC7CCOCC7)nc6c5)C4)CC3)c(F)c2)C(=O)N1 (stereo not drawn) [Example 193, 3-((3-fluoro-4-(4-(2-(3-(((5-fluoro-4-oxo-2-(((tetrahydro-2H-pyran-4-yl)thio)methyl)-3,4-dihydroquinazolin-7-yl)oxy)methyl)azetidin-1-yl)ethyl)piperazin-1-yl)phenyl)amino)piperidine-2,6-dione] |
| < 30 nM | O=C1CCC(Nc2ccc(N3CCN(CCN4CCC(COc5cc(F)c6c(=O)[nH]c(CSC7CCCCC7)nc6c5)CC4)CC3)c(F)c2)C(=O)N1 (stereo not drawn) [Example 194, 3-({4-[4-(2-{4-[({2-[(cyclohexylsulfanyl)methyl]-5-fluoro-4-oxo-3H-quinazolin-7-yl}oxy)methyl]piperidin-1-yl}ethyl)piperazin-1-yl]-3-fluorophenyl}amino)piperidine-2,6-dione] |
| < 30 nM | Cn1nc(C2CCC(=O)NC2=O)c2cc(F)c(C3CCN(CCN4CCC(COc5cc(F)c6c(=O)[nH]c(CSC7CCOCC7)nc6c5)CC4)CC3)cc21 (stereo not drawn) [Example 195, 3-(5-fluoro-6-(1-(2-(4-(((5-fluoro-4-oxo-2-(((tetrahydro-2H-pyran-4-yl)thio)methyl)-3,4-dihydroquinazolin-7-yl)oxy)methyl)piperidin-1-yl)ethyl)piperidin-4-yl)-1-methyl-1H-indazol-3-yl)piperidine-2,6-dione] |
| < 30 nM | O=C1CCN(c2ccc(N3CCN(CCN4CCC(COc5cc(F)c6c(=O)[nH]c(CSC7CCOCC7)nc6c5)CC4)CC3)c(F)c2)C(=O)N1 [Example 196, 1-(3-fluoro-4-(4-(2-(4-(((5-fluoro-4-oxo-2-(((tetrahydro-2H-pyran-4-yl)thio)methyl)-3,4-dihydroquinazolin-7-yl)oxy)methyl)piperidin-1-yl)ethyl)piperazin-1-yl)phenyl)dihydropyrimidine-2,4(1H,3H)-dione] |
| < 30 nM | O=C1CCN(c2ccc(N3CCN(CCN4CCC(COc5cc(F)c6c(=O)[nH]c(COC7CCOCC7)nc6c5)CC4)CC3)c(F)c2)C(=O)N1 [Example 197, 1-(3-fluoro-4-(4-(2-(4-(((5-fluoro-4-oxo-2-(((tetrahydro-2H-pyran-4-yl)oxy)methyl)-3,4-dihydroquinazolin-7-yl)oxy)methyl)piperidin-1-yl)ethyl)piperazin-1-yl)phenyl)dihydropyrimidine-2,4(1H,3H)-dione] |
| < 30 nM | Cn1nc(N2CCC(=O)NC2=O)c2cc(F)c(C3CCN(CCN4CCC(COc5cc(F)c6c(=O)[nH]c(COC7CCOCC7)nc6c5)CC4)CC3)cc21 [Example 198, 1-(5-fluoro-6-(1-(2-(4-(((5-fluoro-4-oxo-2-(((tetrahydro-2H-pyran-4-yl)oxy)methyl)-3,4-dihydroquinazolin-7-yl)oxy)methyl)piperidin-1-yl)ethyl)piperidin-4-yl)-1-methyl-1H-indazol-3-yl)dihydropyrimidine-2,4(1H,3H)-dione] |
| < 30 nM | O=C1CCC(Nc2ccc(NC(=O)[C@H]3CCN(CCN4CCC(COc5cc(F)c6c(=O)[nH]c(COC7CCOCC7)nc6c5)CC4)C3)c(F)c2)C(=O)N1 (stereo partly drawn) [Example 199, (3S)-N-(4-((2,6-dioxopiperidin-3-yl)amino)-2-fluorophenyl)-1-(2-(4-(((5-fluoro-4-oxo-2-(((tetrahydro-2H-pyran-4-yl)oxy)methyl)-3,4-dihydroquinazolin-7-yl)oxy)methyl)piperidin-1-yl)ethyl)pyrrolidine-3-carboxamide] |
| < 30 nM | O=C1CCC(Nc2ccc(NC(=O)[C@@H]3CCN(CCN4CCC(COc5cc(F)c6c(=O)[nH]c(COC7CCOCC7)nc6c5)CC4)C3)c(F)c2)C(=O)N1 (stereo partly drawn) [Example 200, (3R)-N-(4-((2,6-dioxopiperidin-3-yl)amino)-2-fluorophenyl)-1-(2-(4-(((5-fluoro-4-oxo-2-(((tetrahydro-2H-pyran-4-yl)oxy)methyl)-3,4-dihydroquinazolin-7-yl)oxy)methyl)piperidin-1-yl)ethyl)pyrrolidine-3-carboxamide] |
| < 30 nM | O=C1CCC(Nc2ccc(NC(=O)C3CCN(CCN4CCC(COc5cc(F)c6c(=O)[nH]c(COC7CCOCC7)nc6c5)CC4)CC3)c(F)c2)C(=O)N1 (stereo not drawn) [Example 201, N-(4-((2,6-dioxopiperidin-3-yl)amino)-2-fluorophenyl)-1-(2-(4-(((5-fluoro-4-oxo-2-(((tetrahydro-2H-pyran-4-yl)oxy)methyl)-3,4-dihydroquinazolin-7-yl)oxy)methyl)piperidin-1-yl)ethyl)piperidine-4-carboxamide] |
| < 30 nM | CN(C(=O)C1CCN(CCN2CCC(COc3cc(F)c4c(=O)[nH]c(COC5CCOCC5)nc4c3)CC2)CC1)c1ccc(NC2CCC(=O)NC2=O)cc1F (stereo not drawn) [Example 202, N-(4-((2,6-dioxopiperidin-3-yl)amino)-2-fluorophenyl)-1-(2-(4-(((5-fluoro-4-oxo-2-(((tetrahydro-2H-pyran-4-yl)oxy)methyl)-3,4-dihydroquinazolin-7-yl)oxy)methyl)piperidin-1-yl)ethyl)-N-methylpiperidine-4-carboxamide] |
| < 30 nM | Cn1nc(N2CCC(=O)NC2=O)c2cccc(C3CCN(CCN4CCC(COc5cc(F)c6c(=O)[nH]c(COC7CCOCC7)nc6c5)CC4)CC3)c21 [Example 203, 1-(7-(1-(2-(4-(((5-fluoro-4-oxo-2-(((tetrahydro-2H-pyran-4-yl)oxy)methyl)-3,4-dihydroquinazolin-7-yl)oxy)methyl)piperidin-1-yl)ethyl)piperidin-4-yl)-1-methyl-1H-indazol-3-yl)dihydropyrimidine-2,4(1H,3H)-dione] |
| < 30 nM | O=C1CCN(c2ccc(C3CCN(CCN4CCC(COc5cc(F)c6c(=O)[nH]c(COC7CCOCC7)nc6c5)CC4)CC3)c(F)c2)C(=O)N1 [Example 204, 1-(3-fluoro-4-(1-(2-(4-(((5-fluoro-4-oxo-2-(((tetrahydro-2H-pyran-4-yl)oxy)methyl)-3,4-dihydroquinazolin-7-yl)oxy)methyl)piperidin-1-yl)ethyl)piperidin-4-yl)phenyl)dihydropyrimidine-2,4(1H,3H)-dione] |
| < 30 nM | Cn1nc(N2CCC(=O)NC2=O)c2ccc(C3CCN(CCN4CCC(COc5cc(F)c6c(=O)[nH]c(COC7CCOCC7)nc6c5)CC4)CC3)c(F)c21 [Example 205, 1-(7-fluoro-6-(1-(2-(4-(((5-fluoro-4-oxo-2-(((tetrahydro-2H-pyran-4-yl)oxy)methyl)-3,4-dihydroquinazolin-7-yl)oxy)methyl)piperidin-1-yl)ethyl)piperidin-4-yl)-1-methyl-1H-indazol-3-yl)dihydropyrimidine-2,4(1H,3H)-dione] |
| < 30 nM | O=C1CCC(Nc2ccc(N3CCN(CCN4CCC(COc5ccc6c(=O)[nH]c(CSC7CCOCC7)nc6c5)CC4)CC3)c(F)c2)C(=O)N1 (stereo not drawn) [Example 206, 3-((3-fluoro-4-(4-(2-(4-(((4-oxo-2-(((tetrahydro-2H-pyran-4-yl)thio)methyl)-3,4-dihydroquinazolin-7-yl)oxy)methyl)piperidin-1-yl)ethyl)piperazin-1-yl)phenyl)amino)piperidine-2,6-dione] |
